The source of these data is patent US12427151B2, “Compositions and method of treating cancer” (The Regents of the University of California, priority 2017, dated 2025).

The test system of series [1] is GAS. Briefly: Comparison of antimicrobial activity of natural and synthetic 6-HAP. Conditions: THB overnight, OD600. Format: cell-based, group A Streptococcus. As to the method: GAS (1×10^5 CFU/mL) were incubated with indicated concentrations of purified 6-HAP or synthetic 6-HAP in THB overnight. Bacterial growth was monitored by measuring OD600 (relative % of growth index).
Structural analyses of antibiotic produced by S. epidermidis. High-resolution electrospray (ES)-mass spectrometry analysis of the purified antimicrobial fraction identified a molecule with a mass of 151.0487, predicting a molecular formula of C5H5N5O (calculated: 151.0489) (FIG. 3a). […] Given the chemical formula as C5H5N5O, the structure was predicted as 6-N-hydroxyaminopurine (6-HAP). To confirm this predicted structure we performed a chemical synthesis of 6-HAP. […] In addition, the fragmentation profile of natural compound by electron-impact MS (FIG. 3e) also matched that of synthetic product (FIG. 3f).

Series [2] deals with GAS. Nature of the series: Time course killing of GAS. Format: cell-based, group A Streptococcus. Conditions: THB; 6-HAP 25 μg/mL, mitomycin C 5 μg/mL, LL-37 10 μM. As to the method: (§1) (a) Time course killing of GAS in THB containing 6-HAP (25 μg/mL), mitomycin C (5 μg/mL), or LL-37 (10 μM). At each indicated time point, live GAS in the media was measured by counting CFU on an agar plate. The data represent mean±SE of four individual experiments. (b) Membrane permeability of GAS incubated in THB containing 6-HAP (25 μg/mL), mitomycin C (5 μg/mL) and LL-37 (10 μM) for 1 hr. The bacteria with compromised plasma membranes (Red) can be distinguished from those with intact membranes (Green). (c) BrdU incorporation into nascent DNA of GAS after incubation with 6-HAP (25 μg/mL) or mitomycin C (5 μg/mL) in THB containing BrdU (10 μM) for 30 or 60 min. (d) BrdU incorporation into nascent DNA of S. epidermidis ATCC12228 after incubation with 6-HAP (25 μg/mL) or mitomycin C (5 μg/mL) in THB containing BrdU (10 μM) for 60 min. The data represent mean±SE of five individual experiments (*P<0.05 and **P<0.01 by Student's t-test vs vehicle control). (e-f) Capacity of 6-HAP to block in vitro DNA extension by Klenow fragment polymerase. Extension reaction was carried out with IRDye800-labeled 18-nt primer (SEQ ID NO:57) and 25-nt template which required adenosine (X=T) or cytidine (X=G) at the initial base for extension (SEQ ID NO:58) (e). Extension reaction was analyzed on a 20% acrylamide gel by electrophoresis (f). […] GAS survival was measured by counting CFU. […]

The next series relates to GAS (NZ131). Briefly: BrdU incorporation assay in bacteria. The series is classed as cell-based, group A Streptococcus. Conditions: 6-HAP 25 μg/mL, 30 or 60 min. As for the experimental part:
as §1, with “Extension reaction was carried out with IRDye800-labeled 18-nt primer (SEQ ID NO:57) and 25-nt template which required adenosine (X=T) or cytidine (X=G) at the initial base for extension (SEQ ID NO:58) (e).” left out
BrdU incorporation assay. […] BrdU incorporation into nascent DNA was measured in a time-dependent manner using BrdU incorporation assay kit (Roche) according to the manual.
On the technique in general: Uptake of a labelled nucleoside into DNA is a usual measure of proliferation.

The subject of a further series is P. acnes ATCC6919. Briefly: MBC determination. Format: cell-based, Propionibacterium acnes. Conditions: Cutibacterium acnes, 3-log reduction, 24 hour, 37° C., half strength MHB in PBS.
Series [3] relates to Pam212 squamous cell carcinoma. Nature of the series: Cell proliferation assay (BrdU incorporation). Conditions: Pam212, 4-hr incubation. The series is classed as cell-based, mouse. As for the experimental part: (a-b) Selective antiproliferative activity of 6-HAP against Pam212 squamous cell carcinoma, but not against normal keratinocytes. BrdU incorporation into Pam212 cells (b) or NHEKs (b) after 4-hr or 24-hr incubation, respectively, in suitable media containing indicated concentrations of 6-HAP or mitomycin C (10 μg/mL) (a). (c) Expression of mARC1 and mARC2 in NHEKs, squamous cell carcinoma (Pam212), melanoma (B16F10) and lymphoma cell lines (L5178). To compare relative expression level in each cells, data was shown as relative to GAPDH expression. (d) Expression of mARC1 and mARC2 in NHEKs treated with control siRNA, mARCI siRNA and mARC2 siRNA. (e) Effect of gene silencing with mARC1 and mARC2 siRNA on sensitivity to 6-HAP in NHEKs. NHEKs treated with each siRNA were incubated for 48 hrs and then incubated with 10 μg/mL of 6-HAP for 24 hrs.
Cell culture and cell proliferation assay. B16F10 mouse melanoma, Pam212, L5178 and YAC-1 mouse […] cell lines were obtained from American Type Culture Collection. […] After 4-hr (tumor cell lines) or 24-hr (NHEK) incubation with 6-HAP, proliferative activity of cells was colorimetrically determined by monitoring BrdU incorporation with Cell Proliferation kit according to the manual (Roche).

In series [4] the test system is L5178Y tk+/- mouse lymphoma cells. Nature of the series: Mutagenic activity at the thymidine kinase (tk) locus. To be noted: compared to vehicle. Format: cell-based. As to the method:
Because some nucleobase analogs exert mutagenic activities due to their misrecognition of wrong bases, mutagenic activity of 6-HAP was determined by detecting mutagenic events at the thymidine kinase (tk) locus of L5178Y tk^+/− mouse lymphoma cells.

What is called MBC is the lowest tested concentration that kills the bacteria rather than only halting them. The low end stands for more potent killing, the high end for less potent killing. As to `ONc1ncnc2nc[nH]c12` [6-HAP, 6-N-hydroxyaminopurine], the “antimicrobial activity against GAS, synthetic versus natural product” value in the series with GAS [1] is “comparable to that of natural product”. Besides, the “kinetics of killing, growth of GAS over time” value with GAS [2] is “at a rate similar to mitomycin C but slower than LL37”. The “BrdU incorporation into the genomic DNA of GAS” value with GAS (NZ131) is recorded as “Significant suppression”. The MBC in the series with P. acnes ATCC6919 is > 100 µg/mL. For the same compound, the BrdU incorporation result in series [3] was “inhibited”. Further, in series [4], the “mutagenic activity, mutation frequency at tk locus” value was “did not detect a difference”.
